In patent US20020048580A1, “Method of inducing lung branching” (Institut National De La Sante Et De La Recherche Medicale, priority 2000, published 2002):
Entries after “also recorded” stand apart in the source; their conditions may differ. Read-outs that look alike come from different tables or passages of the source.

Experiments:
[1] = tested on: E8.0 embryos; test: Whole embryo culture, primary lung bud and oesophagotracheal fold formation; assay type: cell-based, mouse
Experimental: Embryos were collected at E8.0 (i.e. 36 hours prior to the formation of primary lung buds and tracheal diverticulum; Kaufman, M. H., The Atlas of Mouse Development, London Academic Press (1992)), and cultured for 48 hours (i.e. until the equivalent of E9.5 in vivo) either in the presence of the pan-RAR antagonist, Compound VIII (Chazaud, C., et al., Development 126:2589-2596 (1999); Wendling, O., et al., Development 127:1553-62 (2000), or in the presence of the retinoid vehicle (i.e. ethanol alone). Treatment with 10^−6 M Compound VIII, inhibited primary lung bud outgrowth (FIGS. 1A-1D; l and r) and caused a failure of oesophagotracheal fold formation (arrowheads in FIG. 1F compare with FIG. 1G). […] Therefore, a block in RA signal transduction before and at the onset of lung bud appearance inhibits the formation of the respiratory system from the primitive foregut.
Whole embryos from CD 1×CD 1 crosses were collected at E8.0, staged and cultured according to previously described methods in the presence of retinoids or ethanol vehicle alone for 48 hours (New D.A.T., Postimplantation Mammalian Embryos: A Practical Approach, Cop, A. J. and Cockroft, D. L., eds., Oxford University Press (1990); Wendling, O., et al., Development 127:1553-62 (2000)). For morphological assessment, serial transverse histological sections were stained with hematoxylin and eosin.

[2] = tested on: E11.75 wild type lungs; test: Lung explant culture, average terminal bud number (ATBN), wild type; assay type: cell-based, mouse; conditions: for retinoid-induced changes in ATBN: 10^−6 M RA and 10^−6 M Compound VIII simultaneously added; for average terminal bud number (ATBN): 4 days in culture
Experimental: Lung explants from E11.75 or E12.5 embryos were cultured for 4 days, unless otherwise indicated. Control explants were cultured in the presence of the retinoid vehicle alone.
The mouse lines carrying the RARβ, RARγ and CRBPI null mutations and their genotyping protocols have been described previously (Lohnes, D., et al., Cell 73:643-658 (1993); Ghyselinck, N. B., et al., Int. J. Dev. Biol. 41:425-447 (1997); Ghyselinck, N. B., et al., EMBO J. 18:4903-4914 (1999)). The morning of appearance of the vaginal plug was designated as E0.5. For explant culture, E11.75 and E12.5 lungs from RARβ^+/−×RARβ^+/−, RARγ^+/−×RARγ^+/−, CRBPI^−/−×CRBPI^−/− and wildtype crosses were dissected in PBS and incubated in BGJB medium (Fitton-Jackson modified, GibcoBRL), 5% delipidated fetal calf serum (FCS, GibcoBRL) and […] vitamin C (Sigma) on millipore filters (GibcoBRL), at 37° C., in the presence of 5% CO2. Half of the media, supplemented with fresh retinoids (see below), was changed daily. The cultured lung buds reproducibly grew and branched for at least seven days in culture (data not shown). Average terminal bud number (ATBN) was calculated after counting every bud in each explant at 0, 24, 48, 72 and 96 hours after the commencement of culture. Significant differences in ATBN between different groups were determined by ANOVA and Newman-Keuls multiple comparison tests according to previously described methods (Motulsky, H., Intuitive Biostatistics, New York: Oxford University Press (1995)). The synthetic retinoid Compound VIII [a specific pan RAR (α, β and γ) antagonist (Bristol-Myers-Squibb, N.J.); Chazaud, C., et al., Development 126:2589-2596 (1999); Wendling, O., et al., Development 127:1553-62 (2000)] and RA (all-trans retinoic acid) (Sigma) were diluted in ethanol and added to the culture medium at a final ethanol concentration of 0.1% at the beginning of culture and every subsequent 24 hours.

[3] = tested on: RARβ transcripts; test: RARβ expression in lung explants (whole-mount ISH, RNAse protection); assay type: cell-based, mouse; conditions: for retinoid-induced changes in RARβ expression: 10^−6 M RA and 10^−6 M Compound VIII simultaneously added; for RARβ expression: 10^−6 M, E11.75 lung explants
Experimental: FIG. 3A. Whole-mount ISH for detection of RARβ transcripts following 24 hours of exposure of E11.75 lung explants to either retinoid vehicle alone, 10^−6 M RA or 10^−6 M Compound VIII.
FIG. 3B. RNAse protection analyses of RARβ 1/3/4, RARβ2 and vimentin transcripts in lungs explanted at E11.75 and cultured for four days in the presence of retinoids or ethanol; the explants were analyzed four hours after the last addition of the retinoids and/or ethanol to the culture media (2 μg RNA per track; exposure times, four to 24 hours).
The expression pattern of RARβ transcripts in E11.75 lung explants cultured for 24 hours in the absence of retinoids was similar to that observed in vivo at E13.5 (FIG. 3A). […] It is also noteworthy that only limited changes in the expression of vimentin, a specific mesenchymal marker, occurred following retinoid treatment (FIG. 3B). […] In order to investigate this possibility, we compared the effects of 10^−6 M RA upon ATBN in explants from RARβ null embryos (Ghyselinck, N. B., et al., Int. J. Dev. Biol. 41:425-447 (1997)), heterozygotesi and wild type littermates. […] The explants were then treated for 48 hours with 10^−6 M RA (FIG. 3C).
Total RNA preparation, RNAse protection assays and in situ hybridizations were performed as previously described (Chirgwin, J. M., et al., Biochemistry 18:5294-5299 (1979); Décimo, D., et al., “In situ hybridization of nucleic acid probes to cellular RNA,” in Gene Probes 2, A Practical Approach, Hames, B. D. and Higgins, S., eds.: Oxford University Press (1995) pp. 183-210; Mollard, R. and Dziadek, M., Int. J. Dev. Biol. 41:655-666 (1997); Ghyselinck, N. B., et al., Int. J. Dev. Biol. 41:425-447 (1997)). CRBPI, H4, RARβ and vimentin cDNAs have been previously described (Ghyselinck, N. B., et al., Int. J. Dev. Biol. 41:425-447 (1997); Mollard, R. and Dziadek, M., Int. J. Dev. Biol. 41:655-666 (1997)).

[4] = tested on: E12.5 RARβ wild type, heterozygote (+/−) and null (−/−) mutant lungs; test: ATBN in lung explants from RARβ null, heterozygote and wild type littermates; assay type: cell-based, mouse; conditions: 10^−6 M, 48 hours, vs RARβ+/− ethanol controls
Experimental: Appearance of representative E12.5 RARβ, heterozygote (+/−) and null (−/−) mutant lungs from RARβ^+/−/RARβ^+/− crosses, cultured for 24 hours in the absence of retinoids and then 48 hours in the presence of either vehicle alone or 10^−6 M RA. The accompanying histogram depicts ATBN versus treatment at 72 hours of culture; each group consists of seven explants and is representative of two individual experiments. b1=primary bronchi; b2=secondary bronchi; db=distal bud; m=mesenchyme; * p<0.01 relative to control. Error bars represent +/− standard deviation.
For explant culture, E11.75 and E12.5 lungs from RARβ^+/−×RARβ^+/−, RARγ^+/−×RARγ^+/−, CRBPI^−/−×CRBPI^−/− and wildtype crosses were dissected in PBS and incubated in BGJB medium (Fitton-Jackson modified, GibcoBRL), 5% delipidated fetal calf serum (FCS, GibcoBRL) and 180mg/ml vitamin C (Sigma) on millipore filters (GibcoBRL), at 37° C., in the presence of 5% CO2. Half of the media, supplemented with fresh retinoids (see below), was changed daily. […] Average terminal bud number (ATBN) was calculated after counting every bud in each explant at 0, 24, 48, 72 and 96 hours after the commencement of culture. Significant differences in ATBN between different groups were determined by ANOVA and Newman-Keuls multiple comparison tests according to previously described methods (Motulsky, H., Intuitive Biostatistics, New York: Oxford University Press (1995)).

[5] = tested on: CRBPI transcripts; test: CRBPI expression in cultured lungs (RNAse protection); assay type: cell-based, mouse; conditions: 10^−6 M, cultured E12.5 wild type lungs
Experimental: FIG. 5A. RNAse protection analysis of CRBPI transcripts in E11.75 wild type lungs cultured for four days in the presence of retinoids or ethanol; the explants were analyzed four hours after the last addition of the retinoids, and/or ethanol to the culture media (2 μg RNA per track; exposure times, four to 24 hours). Six experiments per group, 10 lungs per experiment.
The lung at the pseudoglandular stage is a major site of expression of CRBPI in the embryo (Dollé, P., et al., Development 110:1133-1151 (1990)). In cultured E12.5 wild type lungs, CRBPI expression was increased in the presence of 10^−6 M RA and decreased by 10^−6 M Compound VIII (FIG. 5A). Thus, increased and decreased expression of CRBPI are correlated with retinoid-induced inhibition and stimulation of branching, respectively. To further test an involvement of CRBPI in lung morphogenesis, explants from E12.5 CRBPI null mutants (Ghyselinck, N. B., et al., EMBO J. 18:4903-4914 (1999)) were cultured in the presence of various concentrations of the pan-RAR antagonist. […]

[6] = tested on: pulmonary alveoli; conditions: cited from earlier work; for number of pulmonary alveoli: postnatal treatment, newborn rats
[7] = tested on: lung cultures; conditions: cited from earlier work
[8] = tested on: E12.5 RARγ wild type (+/+), heterozygote (+/−) and null (−/−) mutant lungs; test: ATBN in RARγ wild type, heterozygote and null lung explants; assay type: cell-based, mouse; conditions: 10^−6 M
Experimental: FIG. 4C. E12.5 RARγ wild type (+/+), heterozygote (+/−) and null (−/−) mutant lungs from RARγ^+/−/RARγ^+/−heterozygote crosses were cultured for 24 hours in the absence of retinoids and then for 72 hours in the presence of 10^−6M Compound VIII (seven explants per group, two individual experiments). […] Error bars represent +/− standard deviation. Scale bar=100 μm.
RARα1, RARα2 and RARγ2 transcripts are expressed ubiquitously in E13.5 lungs in vivo. […]
(§1) The mouse lines carrying the RARβ, RARγ and CRBPI null mutations and their genotyping protocols have been described previously (Lohnes, D., et al., Cell 73:643-658 (1993); Ghyselinck, N. B., et al., Int. J. Dev. Biol. 41:425-447 (1997); Ghyselinck, N. B., et al., EMBO J. 18:4903-4914 (1999)). […] Average terminal bud number (ATBN) was calculated after counting every bud in each explant at 0, 24, 48, 72 and 96 hours after the commencement of culture. Significant differences in ATBN between different groups were determined by ANOVA and Newman-Keuls multiple comparison tests according to previously described methods (Motulsky, H., Intuitive Biostatistics, New York: Oxford University Press (1995)). […]

[9] = tested on: E12.5 CRBPI null mutant lungs; test: ATBN in CRBPI null mutant lung explants; assay type: cell-based, mouse
Text: FIG. 5B. ATBN in CRBPI null mutant lungs cultured for four days in the presence of either ethanol alone (control), or 10^−6 M or 10^−7 M Compound VIII. Six explants per group, three individual experiments; * p<0.01 relative to control. Error bars represent +/− standard deviation.
The lung at the pseudoglandular stage is a major site of expression of CRBPI in the embryo (Dollé, P., et al., Development 110:1133-1151 (1990)). In cultured E12.5 wild type lungs, CRBPI expression was increased in the presence of 10^−6 M RA and decreased by 10^−6 M Compound VIII (FIG. 5A). […]
as §1

[10] = 10^−6 M, E8.0 embryos cultured 48 hours, vs ethanol vehicle

SMILES: CC1=C(/C=C/C(C)=C/C=C/C(C)=C/C(=O)O)C(C)(C)CCC1 [RA, all-trans retinoic acid]
- Compound VIII-induced defects of lung bud outgrowth and oesophagotracheal fold formation ([1]; simultaneous addition of 10^−6 M Compound VIII and 10^−7 M RA, 48 hours): partially prevented
- increased explant size and terminal bud numbers of Compound VIII treated explants ([2]; 10^−6 M Compound VIII with concomitant 10^−6 M RA): reduced
- retinoid-induced changes in ATBN [2]: prevented
- average terminal bud number (ATBN) ([2]; 10^−6 M): significantly decreased; also recorded: significant decrease
- average terminal bud number (ATBN) ([2]; 10^−7 M): significantly decreased; also recorded: significant decrease
- average terminal bud number (ATBN) ([2]; 10^−8 M): ineffective
- retinoid-induced changes in RARβ expression [3]: prevented
- RARβ expression [3]: induced the expression of RARβ throughout the pulmonary tree, including the distal buds
- ATBN ([4]; RARβ null explants): no significant difference
- ATBN ([4]; RARβ+/− explants): significant reduction
- ATBN ([4]; wild type explants): significant reduction
- CRBPI expression [5]: increased
- alveolar number ([6]; animal models of emphysema): restores
- number of pulmonary alveoli [6]: increases
- number of pulmonary alveoli ([6]; listed as retinoic acid): increase
- branching morphogenesis [7]: inhibitory effect

SMILES: CC1(C)CC=C(C#Cc2ccccc2)c2cc(/C=C/c3ccc(C(=O)O)cc3)ccc21 [Compound VIII]
- oesophagotracheal fold formation [1, 10]: failure
- primary lung bud outgrowth [1, 10]: inhibited
- average terminal bud number (ATBN) ([2]; 2×10^−6 M): significantly increased; also recorded: significant increases
- explant size and terminal bud numbers ([2]; 10^−6 M): Increased
- retinoid-induced changes in ATBN [2]: prevented
- RA-induced decrease in ATBN ([2]; 10^−6 M and 10^−7 M RA with concomitant 10^−6 M Compound VIII): negated
- average terminal bud number (ATBN) ([2]; 10^−6 M): significantly increased; also recorded: significant increases
- average terminal bud number (ATBN) ([2]; 10^−7 M): ineffective
- average terminal bud number (ATBN) ([2]; 10^−8 M): ineffective
- retinoid-induced changes in RARβ expression [3]: prevented
- RARβ expression [3]: decreased RARβ expression in secondary bronchi
- differences in the stimulation of ATBN between RARγ genotype groups [8]: No significant differences
- CRBPI expression [5]: decreased
- ATBN ([9]; CRBPI null lungs, 10^−7 M, four days): significant increase
- sensitivity of CRBPI null lungs relative to wild type lungs to stimulation of distal bud formation ([9]; CRBPI null vs wild type lungs): approximately 10 fold
